Common to all, as to type: biochemical
For one experiment, the target named is T1, human MMP12 (Homo sapiens, UniProt P39900).
T1 construct: human MMP12 (Uniprot P39900), amino acids 101–268; made in house; host or cells: E. coli
Description: Selectivity assay MMP12. The procedure:
(§1) All biochemical assays were performed at room temperature in 384-well plates in a total volume of 25.25 μl per well. Test compounds were dissolved in 90% (v/v) DMSO/water. For the assays, 250 nl of compound solution was added per well, followed by addition of 12.5 μl protease solution. After 70 min of pre-incubation at room temperature, the reactions were started by addition of 12.5 μl substrate solution and followed either by measuring fluorescence intensity (rhodamine 110-based substrates) or by fluorescence lifetime (PT14-based substrates). The effect of compound on enzymatic activity was obtained from the linear part of the progress curves and determined after 1 h (t=60 min). The final compound concentrations ranged from 100 μM to 1 nM.
(§2) Matrix metalloproteinases. Human MMP1 (Uniprot P03956), amino acids 1–469, expressed in and purified from stable transfected C127 cells; human MMP2 (Uniprot P08253), amino acids 1–660, expressed in and purified from insect cells (baculovirus expression system); human MMP8 (Uniprot P22894), amino acids 100–262, expressed in and purified from E. coli; human MMP9 (Uniprot P14780), amino acids 1–707, expressed in and purified from stable transfected 293 cells; human MMP12 (Uniprot P39900), amino acids 101–268, expressed in and purified from E. coli; human MMP13 (Uniprot P45452), amino acids 103–274, expressed in and purified from E. coli; human MMP14 (Uniprot P50281), amino acids 112–284, expressed in and purified from E. coli; human ADAM17 (Uniprot P78536), amino acids 1–670, expressed in and purified from insect cells (baculovirus expression system); substrate: Ac-C(PT14)-[…]-NH2 purchased from Biosyntan (product number 8069); enzyme concentrations: 3 nM (MMP1), 1 nM (MMP2), 3 nM (MMP8), 0.1 nM (MMP9), 0.5 nM (MMP12), 0.13 nM (MMP13), 0.005 nM (MMP14), 30 nM (ADAM17); substrate concentration: 0.8 μM; assay buffer: 100 mM Tris, pH 7.4, 100 mM NaCl, 10 mM CaCl2, 10 μM ZnCl2, 0.075% (v/v) Brij35.

In the next experiment the target is T2, human ADAM17 (Homo sapiens, UniProt P78536).
T2 construct: human ADAM17 (Uniprot P78536), amino acids 1–670; made in house; host or cells: insect cells (baculovirus)
T2 sequence (P78536 18-670): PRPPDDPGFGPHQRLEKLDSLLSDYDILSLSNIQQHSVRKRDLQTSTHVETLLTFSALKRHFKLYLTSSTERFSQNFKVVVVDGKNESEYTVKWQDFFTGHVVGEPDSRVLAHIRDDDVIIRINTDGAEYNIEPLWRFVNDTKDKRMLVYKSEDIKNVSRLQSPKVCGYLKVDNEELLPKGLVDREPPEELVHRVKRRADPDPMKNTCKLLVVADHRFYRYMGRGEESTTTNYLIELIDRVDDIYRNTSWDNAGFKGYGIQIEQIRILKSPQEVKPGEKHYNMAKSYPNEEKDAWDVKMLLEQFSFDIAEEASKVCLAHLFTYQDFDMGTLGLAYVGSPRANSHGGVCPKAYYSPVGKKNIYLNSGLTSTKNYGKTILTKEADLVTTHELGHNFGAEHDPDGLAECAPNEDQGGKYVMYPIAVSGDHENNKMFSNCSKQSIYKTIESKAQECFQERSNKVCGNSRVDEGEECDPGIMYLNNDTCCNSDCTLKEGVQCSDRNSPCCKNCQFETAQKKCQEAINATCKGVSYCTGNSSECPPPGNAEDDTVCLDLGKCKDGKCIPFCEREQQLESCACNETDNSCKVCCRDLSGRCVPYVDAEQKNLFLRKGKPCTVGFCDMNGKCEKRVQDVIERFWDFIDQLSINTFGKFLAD
In words: Selectivity assay ADAM17. The procedure:
as §1, §2

For the next experiment, the target named is T3, human MMP9 (Homo sapiens, UniProt P14780).
T3 construct: human MMP9 (Uniprot P14780), amino acids 1–707; made in house; host or cells: stably transfected 293 cells
T3 sequence (P14780 20-707): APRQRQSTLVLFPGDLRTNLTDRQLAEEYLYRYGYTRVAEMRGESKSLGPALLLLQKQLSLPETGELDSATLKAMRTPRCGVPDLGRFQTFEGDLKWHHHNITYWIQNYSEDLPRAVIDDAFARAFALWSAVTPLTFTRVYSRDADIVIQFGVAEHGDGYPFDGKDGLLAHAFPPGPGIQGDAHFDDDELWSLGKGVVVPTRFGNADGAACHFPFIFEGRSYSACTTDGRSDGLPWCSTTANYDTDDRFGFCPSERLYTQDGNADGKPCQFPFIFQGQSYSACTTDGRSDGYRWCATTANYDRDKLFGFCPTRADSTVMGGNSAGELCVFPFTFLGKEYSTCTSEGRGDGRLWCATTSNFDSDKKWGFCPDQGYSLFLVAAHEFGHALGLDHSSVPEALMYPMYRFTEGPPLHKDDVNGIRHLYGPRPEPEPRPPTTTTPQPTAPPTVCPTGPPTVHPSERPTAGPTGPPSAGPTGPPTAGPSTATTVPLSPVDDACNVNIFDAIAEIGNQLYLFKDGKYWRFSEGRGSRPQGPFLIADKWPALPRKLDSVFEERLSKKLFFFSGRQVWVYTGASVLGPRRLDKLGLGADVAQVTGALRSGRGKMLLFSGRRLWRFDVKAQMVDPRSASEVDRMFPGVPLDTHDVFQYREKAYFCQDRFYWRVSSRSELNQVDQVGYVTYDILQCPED
Description: Selectivity assay MMP9. As to the method:
as §1, §2

Another experiment deals with T4, human MMP14 (Homo sapiens, UniProt P50281).
T4 construct: human MMP14 (Uniprot P50281), amino acids 112–284; made in house; host or cells: E. coli
Description: Selectivity assay MMP14. As to the method: as §1, §2

A further experiment concerns the target T5, Human AMSHLP (Homo sapiens, UniProt Q96FJ0).
T5 construct: made in house; host or cells: E. coli
T5 sequence (Q96FJ0 1-436): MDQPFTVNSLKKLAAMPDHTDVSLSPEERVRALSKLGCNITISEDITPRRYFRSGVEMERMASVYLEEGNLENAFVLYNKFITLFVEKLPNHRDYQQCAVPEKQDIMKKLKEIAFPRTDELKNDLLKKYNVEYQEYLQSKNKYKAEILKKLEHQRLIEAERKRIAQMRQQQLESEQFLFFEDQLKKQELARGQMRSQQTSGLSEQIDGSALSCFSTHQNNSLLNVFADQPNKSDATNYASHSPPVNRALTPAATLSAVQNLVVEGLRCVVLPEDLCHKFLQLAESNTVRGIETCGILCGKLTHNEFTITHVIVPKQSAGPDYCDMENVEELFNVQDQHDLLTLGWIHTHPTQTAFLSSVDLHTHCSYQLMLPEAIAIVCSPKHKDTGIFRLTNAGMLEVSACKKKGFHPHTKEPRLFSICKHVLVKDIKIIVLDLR
Description: Selectivity assay AMSHLP (ubiquitin-rhodamine110-glycine substrate). As to conditions: JAMM domain protease. As to the method: as §1
Human AMSHLP. Enzyme was expressed in and purified from E. coli; substrate: ubiquitin-rhodamine110-glycine was purchased from emp Biotech GmbH (Berlin, Germany; product number AS 09/12-A4); enzyme concentration: 4 nM; substrate concentration: 200 nM; assay buffer: 100 mM Tris/HCl at pH 7.5, 10 mM CaCl2, 100 mM NaCl, 10 μM ZnCl2, 0.005% (v/v) BRIJ 35 and 5 mM dithioerythritol (DTE).

Another experiment has as its target T6, human MMP2 (Homo sapiens, UniProt P08253).
T6 construct: human MMP2 (Uniprot P08253), amino acids 1–660; made in house; host or cells: insect cells (baculovirus)
T6 sequence (P08253 30-660): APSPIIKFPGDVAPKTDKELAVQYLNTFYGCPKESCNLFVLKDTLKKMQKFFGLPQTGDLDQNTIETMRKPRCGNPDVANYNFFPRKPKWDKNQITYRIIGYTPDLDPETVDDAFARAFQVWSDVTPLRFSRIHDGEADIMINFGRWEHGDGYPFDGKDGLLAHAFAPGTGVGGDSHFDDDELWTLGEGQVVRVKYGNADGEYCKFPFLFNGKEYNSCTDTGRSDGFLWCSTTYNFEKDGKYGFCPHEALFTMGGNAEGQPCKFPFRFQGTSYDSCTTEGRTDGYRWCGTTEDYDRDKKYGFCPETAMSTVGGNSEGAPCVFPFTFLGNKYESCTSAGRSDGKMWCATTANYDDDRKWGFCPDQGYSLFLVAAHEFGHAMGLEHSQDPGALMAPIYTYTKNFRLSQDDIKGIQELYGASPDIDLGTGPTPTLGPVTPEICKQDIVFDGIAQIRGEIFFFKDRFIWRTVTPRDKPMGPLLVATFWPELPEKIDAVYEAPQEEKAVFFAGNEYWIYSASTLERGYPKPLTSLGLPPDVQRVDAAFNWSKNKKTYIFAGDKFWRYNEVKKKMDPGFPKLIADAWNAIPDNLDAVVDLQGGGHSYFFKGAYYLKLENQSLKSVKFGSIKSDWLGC
Description: Selectivity assay MMP2. As to the method:
as §1, §2

Another experiment deals with T7, human MMP8 (Homo sapiens, UniProt P22894).
T7 construct: human MMP8 (Uniprot P22894), amino acids 100–262; made in house; host or cells: E. coli
T7 sequence (P22894 100-262): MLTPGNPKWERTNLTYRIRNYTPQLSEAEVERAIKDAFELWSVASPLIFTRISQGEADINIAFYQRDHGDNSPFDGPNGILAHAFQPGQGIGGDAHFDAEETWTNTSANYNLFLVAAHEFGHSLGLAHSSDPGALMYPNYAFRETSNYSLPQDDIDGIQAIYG
In words: Selectivity assay MMP8. As to the method:
as §1, §2

A further experiment deals with T8, human MMP13 (Homo sapiens, UniProt P45452).
T8 construct: human MMP13 (Uniprot P45452), amino acids 103–274; made in house; host or cells: E. coli
Description: Selectivity assay MMP13. The procedure: as §1, §2

For orientation: IC50 means the concentration that gives 50% inhibition. A lower IC50 goes with greater potency.

T1 sequence (P39900 101-268): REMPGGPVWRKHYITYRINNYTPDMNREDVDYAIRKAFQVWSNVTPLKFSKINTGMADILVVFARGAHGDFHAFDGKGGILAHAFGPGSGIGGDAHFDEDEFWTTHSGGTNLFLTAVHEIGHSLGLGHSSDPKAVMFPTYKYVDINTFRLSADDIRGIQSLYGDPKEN

Take `COCc1ccccc1NCc1ccc([C@H]2[C@@H](O)CCCc3cncn32)c(-c2ccccc2Cl)c1` [CSN5i-2, (5S,6S)-5-(2′-chloro-5-(((2-(methoxymethyl)phenyl)amino)methyl)-[1,1′-biphenyl]-2-yl)-6,7,8,9-tetrahydro-5H-imidazo[1,5-a]azepin-6-ol]: the IC50 is above 100 µM on human MMP12; above 100 µM against human ADAM17; 3.8 ± 0.4 µM against human MMP9; 15.4 ± 0.02 µM against human MMP14; above 100 µM against Human AMSHLP; 89 ± 3 µM on human MMP2. The figures for the IC50 on human MMP8 and against human MMP13 were 59 ± 8 µM and above 100 µM, respectively.

With `COCc1ccccc1NCc1ccc([C@@H]2[C@H](O)CCCc3cncn32)c(-c2ccccc2Cl)c1` [CSN5i-2e, (5R,6R)-5-(2′-chloro-5-(((2-(methoxymethyl)phenyl)amino)methyl)-[1,1′-biphenyl]-2-yl)-6,7,8,9-tetrahydro-5H-imidazo[1,5-a]azepin-6-ol], the IC50 on human MMP12 is above 100 µM; against human ADAM17 it was above 100 µM; at human MMP9, 3.2 ± 0.2 µM; on human MMP14 it was 11 ± 1 µM; against Human AMSHLP, above 100 µM; on human MMP2, at least 90 µM. Also, the values for the IC50 against human MMP8 and against human MMP13 were 48 ± 8 µM and above 100 µM, respectively.

`CC(C)n1nc(C(F)F)cc1C(=O)Nc1ccc([C@H]2[C@@H](O)CCCc3cncn32)c(-c2ccccc2)c1` [CSN5i-3, 3-(Difluoromethyl)-N-(6-((5S,6S)-6-hydroxy-6,7,8,9-tetrahydro-5H-imidazo[1,5-a]azepin-5-yl)-[1,1′-biphenyl]-3-yl)-1-isopropyl-1H-pyrazole-5-carboxamide]: the IC50 is above 100 µM against human MMP12; above 100 µM at human ADAM17; 7.4 ± 2 µM against human MMP9; 4.6 ± 0.5 µM at human MMP14; above 100 µM on Human AMSHLP; above 100 µM against human MMP2. Also, the results for the IC50 against human MMP8 and at human MMP13 were 14 ± 0.1 µM and above 100 µM, respectively.

The values above are taken from paper PMC5078989, “Targeted inhibition of the COP9 signalosome for treatment of cancer” (Nature Communications, 2016).
